# From article PMC8158687, “Xanthones Active against Multidrug Resistance and Virulence Mechanisms of Bacteria” (Antibiotics, 2021)
# Assays:
# S. aureus 272123 [1] = assay: Efflux pump inhibition assay (real-time ethidium bromide accumulation); format: cell-based, Staphylococcus aureus; conditions: compound 50 µM, EB 1 µg/mL, minute 60
# Protocol: Compounds 1–20 were assessed for their capability of modulating ethidium bromide (EB) accumulation on two resistant strains. […] However, norA is a core gene of the S. aureus as a species, which means that the NorA pump occurs in all S. aureus strains.
# (§1) Salmonella enterica serovar Typhimurium SE03, was used as a Gram-negative bacterium. This strain has a deletion of the acrA gene, which was predicted with the least affinity for the compounds. The aim of these studies was to perform a first screening of these compounds and their ability to modulate the efflux of EB. […] The relative fluorescence index (RFI) was calculated based on the means of relative fluorescence units, depicted in Table 2.
# (§2) Compounds 1–20 were evaluated for their ability to inhibit efflux pumps in SE03 and S. aureus 272123 strains, through the real-time fluorimetry, monitoring the intracellular accumulation of EB, an efflux pump substrate. This was determined by the automated method using a CLARIOstar Plus plate reader (BMG Labtech, Ortenberg, Germany). Reserpine and CCCP were applied at 25 µM as positive controls, and the solvent DMSO was applied at 1% v/v. The bacterial strains were incubated in an appropriate culture media (TSB—S. aureus 272123; LB-B—SE03) at 37 °C until they reached an optical density (OD) between 0.4 and 0.6 at λ = 600 nm. The culture was centrifuged at 13,000× g for 3 min, and the pellet washed and resuspended with PBS. The suspension was centrifuged again in the same conditions and resuspended in PBS. The compounds were applied at 50 µM in a solution of a non-toxic concentration of EB (1 µg/mL) in PBS. Then, 50 µL of this solution were transferred into a 96-well black microtiter plate (Greiner Bio-One Hungary Kft, Mosonmagyaróvár, Fertősor, Hungary), and 50 µL of bacterial suspension (OD600 0.4–0.6) were added to each well. The plates were placed into the CLARIOstar plate reader, and the fluorescence was monitored at excitation and emission wavelengths of 530 nm and 600 nm every minute for one hour on a real-time basis. From the real-time data, the activity of the compounds, namely the RFI of the last time point (minute 60) of the EB accumulation assay, was calculated according to the following formula:(1) RFI=RFtreated−RFuntreated/RFuntreated where RFtreated is the relative fluorescence (RF) at the last time point of EB accumulation curve in the presence of the compound, and RFuntreated is the RF at the last time point of the EB accumulation curve of the untreated control, having only the solvent (DMSO) control. The accumulation curves were designed using Microsoft Excel®.
# [2] = tested on: SE03 (acrA gene-inactivated Salmonella enterica serovar Typhimurium SL1344); assay: as above; format: cell-based; conditions: compound 50 µM, EB 1 µg/mL, minute 60
# Protocol: as §1, §2
# S. aureus ATCC 29213 = assay: Inhibition of biofilm formation (crystal violet); format: cell-based, Staphylococcus aureus; conditions: half the MIC, or 100 µM if MIC >100 µM, 48 h, 30 °C
# [3] = tested on: Chromobacterium violaceum wild type 85 (wt85); assay: Quorum sensing inhibition assay (disk, pigment production); format: cell-based; conditions: read-out: Quorum Sensing Inhibition (mm) ± SD
# Excerpt: (§3) The sensor strain Chromobacterium violaceum CV026 and the acyl-homoserine lactones (AHLs) producer strain Sphingomonas paucimobilis Ezf 10-17 (EZF) were inoculated as parallel lines, and the AHL producers, Chromobacterium violaceum wild type 85 (wt85) and Serratia marcescens AS-1 were inoculated as a single line.
# (§4) For the QS tests, all the bacteria used were Gram-negative. The bacteria used were Chromobacterium violaceum wild type 85 (wt85), characterized by the AHL signal molecule-mediated production of the purple violacein pigment, capable of endogenous QS-signal molecule production (N-hexanoyl-L-HSL), C. violaceum CV026 (CV026), a Tn5 transposase-mutant, AHL-signal molecule indicator strain (produces purple violacein pigment in the presence of AHL), which is incapable of endogenous QS-signal molecule-production, but useful in the detection of external stimuli, Sphingomonas paucimobilis Ezf 10-17 (EZF), AHL-producing-strain (used with C. violaceum CV026), and Serratia marcescens AS-1, characterized by the AHL signal molecule-mediated production of the orange–red pigment prodigiosin (2-methyl-3-pentyl-6-methoxyprodigiosin), capable of endogenous QS-signal molecule production (N-hexanoyl-L-HSL), were applied.
# (§5) The QS inhibitory effect of the compounds was examined on the EZF and the sensor CV026 strains, on the wt85 strain, and on S. marcescens, for 4, 5, 11, 12, 16, 19, and 20. The method used was the parallel inoculation method, where pair combinations of the used sensor strain CV026 and the N-acyl-homoserine lactone (AHL)-producing strain EZF were inoculated directly onto the LB*-A agar surface in parallel, at an approximate distance of 5 mm from each other. S. marcescens AS-1 and wt85 were inoculated as a single line. Filter paper disks (7 mm in diameter) were placed on the center of the inoculated line(s) and impregnated with 8 µL of a solution of 10 mM of the compounds. […] The agar plates were incubated at room temperature (20 °C) for 24–48 h. The QS inhibition was accessed visually, through the inhibition of pigment production. The discolored, but intact, bacterial colonies were measured with a ruler.
# Serratia marcescens AS-1 = assay: as above; format: cell-based; conditions: AS1, read-out: Quorum Sensing Inhibition (mm) ± SD
# Excerpt: as §3, §4, §5
# [4] = tested on: EZF + CV026 (Sphingomonas paucimobilis Ezf 10-17 + Chromobacterium violaceum CV026); assay: Quorum sensing inhibition assay (parallel inoculation, pigment production); format: cell-based; conditions: read-out: Quorum Sensing Inhibition (mm) ± SD
# Excerpt: as §3, §4, §5
# Cytotoxicity assay (MTT) = format: cell-based, mouse; conditions: mouse, NIH/3T3 mouse fibroblast cells, 24 h, MTT, read-out: Cytotoxicity IC50 (µM) ± SD
# Protocol: (§6) In order to apply efflux pump inhibitors to treat patients, several issues should be addressed.
# (§7) Mouse fibroblasts (NIH/3T3, ATCC CRL-1658TM) were cultivated in DMEM (Gibco 52100-039) and supplemented with 10% heat-inactivated fetal bovine serum (Biowest, VWR International Kft, Debrecen, Hungary), 2 mM of L-glutamine, 1 mM Na pyruvate, 100 U/L and 10 mg/L penicillin/streptomycin mixture (Sigma-Aldrich Chemie GmbH, Steinheim, Germany), respectively, and 0.1% nystatin (8.3 g/L in ethylene glycol). The adherent cells were detached using a combination of 0.25% Trypsin–Versene (EDTA) solution for 5 min at 37 °C. Before each cytotoxicity assay using this cell line, cells were seeded in untreated 96-well flat-bottom microtiter plates, following a 4-h incubation period in a humidified atmosphere (5% CO2, 95% air) at 37 °C [60].
# (§8) The cytotoxicity of 4, 12, 16, 19, and 20 was assessed in NIH/3T3 cells. The compounds were added to the cells distributed into 96-well flat bottom microtiter plates at concentrations of […] and initially incubated for 24 h, after which a solution of MTT in PBS was added to each well and incubated for another 4 h. The concentrations used were the same as in the MIC assay. After this, 100 μL of SDS (10% in a 0.01 M HCl solution) were added to each well and incubated overnight at 37 °C. Doxorubicin was used as the positive control. Cell growth was determined in quadruplicate by measuring OD at λ = 540 nm (reference 630 nm) in a Multiscan EX ELISA reader (Thermo Labsystems, Cheshire, WA, USA). The percentage of inhibition of cell growth was determined according to the equation: (2) 100−(ODsample−ODmedium control/ODcell control−ODmedium control)×100
# [5] = tested on: NIH/3T3 mouse fibroblast cells; assay: Cytotoxicity assay (MTT); format: cell-based
# Protocol: as §6, §7, §8
# [6] = tested on: extended-spectrum β-lactamase producing strain; design: method as in PMID 32455828; conditions: previous results; ref [14]; cited from earlier work
# S. aureus 272123 [7] = assay: Inhibition of biofilm formation (crystal violet); format: cell-based, Staphylococcus aureus; conditions: half the MIC, or 100 µM if MIC >100 µM, 48 h, 30 °C
# Protocol: The biofilm inhibition, presented in percentages (%), was calculated based on the mean of absorbance units.
# The bacterial strains used were the Gram-positive S. aureus ATCC 25923 and S. aureus 272123. The detection of the biofilm formation was possible with the use of the dye crystal violet (CV; 0.1% v/v). The initial inoculum was incubated in TSB overnight, and then diluted to an OD600 of 0.1. Then, the bacterial suspension was added to 96-well microtiter plates and the compounds were added at half the MIC. […] The final volume in each well was 200 µL. […] The plates were incubated at 30 °C for 48 h, with gentle stirring (100 rpm). After this incubation period, the TSB medium was discarded, and the plates were washed with tap water to remove unattached cells. Afterwards, 200 µL of a 0.1% v/v CV solution were added to the wells and incubated for 15 min at room temperature. Then, the CV solution was removed from the wells, and the plates were washed again with tap water, and 200 µL of a 70% ethanolic solution were added to the wells. The biofilm formation was determined by measuring the OD600 using a Multiscan EX ELISA plate reader (Thermo Labsystems, Cheshire, WA, USA). The anti-biofilm effect of the compounds was expressed as the percentage (%) of decrease in biofilm formation.
Compound,RFI ± SD (relative fluorescence index) (S. aureus 272123 [1]),RFI ± SD (relative fluorescence index) [2],Inhibition of Biofilm Formation (%) ± SD (S. aureus ATCC 29213),zone of inhibition at 10000 µM [3],zone of inhibition at 10000 µM (Serratia marcescens AS-1),zone of inhibition at 10000 µM [4],IC50 at 24 h (Cytotoxicity assay (MTT)),Cytotoxicity (in words) [5],activity against extended-spectrum β-lactamase producing strain (in words) [6],Inhibition of Biofilm Formation (%) ± SD (S. aureus 272123 [7])
O=c1c2cc(O)ccc2oc2cccc(O)c12 [Compound 4],0.13 ± 0.08 ^2,2.90 ± 0.71 ^7,0 ^1%,0 mm,0 mm,0 mm,> 100 µM,no cytotoxicity was observed,not active,
Cc1c(O)cc2oc3ccccc3c(=O)c2c1O [Compound 5],0.16 ± 0.08 ^2,1.74 ± 0.22 ^7,0 ^1%,0 mm,0 mm,0 mm,,,,61.62 ± 16.51 ^3%
COc1cccc2oc3ccccc3c(=O)c12 [Compound 11],,,0 ^1%,0 mm,0 mm,0 mm,,,,39.95 ± 7.66 ^3%
COc1cc(CBr)c2c(=O)c3ccccc3oc2c1OC [Compound 12],0.11 ± 0.30 ^4,1.75 ± 1.57 ^9,0 ^1%,0 mm,0 mm,30 ± 0.5 mm,54.6 ± 5.3 µM,moderate cytotoxicity,,6.27 ± 1.41 ^3%
COc1ccc2c(=O)c3c(C=O)cc(OC)c(OC)c3oc2c1 [Compound 16],5.49 ± 8.04 ^5,0.13 ± 0.15 ^10,0 ^2%,0 mm,0 mm,42 ± 0.8 mm,26.9 ± 5.87 µM,moderate cytotoxicity,,58.98 ± 12.00 ^4%
COc1cc(CNCc2ccc(F)cc2)c2c(=O)c3ccccc3oc2c1OC [Compound 19],0.02 ± 0.02 ^3,2.86 ± 0.14 ^8,,0 mm,0 mm,0 mm,> 100 µM,,,65.03 ± 9.86 ^4%
COc1cc(CN[C@H](C)c2ccc(Cl)cc2)c2c(=O)c3ccccc3oc2c1OC [Compound 20],1.08 ± 0.82 ^4,2.09 ± 0.05 ^11,,0 mm,0 mm,0 mm,35.1 ± 4.86 µM,,,77.17 ± 4.45 ^4%
"COc1cccc2c1C(=O)c1c(O)c3c(c(O)c1C2=O)C[C@@](O)(C(=O)CO)C[C@@H]3O[C@H]1C[C@H](N)[C@H](O)[C@H](C)O1 [Doxorubicin, reference compound]",,,,,,,12.1 ± 0.81 µM,,,
"CC(CN1c2ccccc2Sc2ccccc21)N(C)C (stereo not drawn) [PMZ, promethazine, reference compound]",,,,41 ± 0.5 mm,18 ± 0.8 mm,40 ± 0.1 mm,,,,
